Legend:
DRG nociceptors = assay: Whole-mount DRG patch clamp from tumor-bearing mice ex vivo; type: cell-based, mouse; conditions: 30 μM, 2 h, DRGs isolated d11
From the text: Whole-cell patch clamp recordings in whole-mount DRGs ex vivo. Four-week-old male C57BL/6 mice were used to establish the bone cancer pain model by intrafemoral inoculation of LLC, leading to nociceptor hyperexcitability in the ipsilateral L3-L5 DRGs which extend afferent nerve fibers to the tumor-bearing femur. […] 11d after tumor implantation, mice were euthanized followed by careful isolation of L3-L5 DRGs, which were placed in oxygenated artificial cerebrospinal fluid. DRGs were lightly digested for 20 minutes using an enzymatic mixture consisting of 0.32 ml collagenase A (1 mg/mL) and Trypsin (0.25%). Intact DRGs were then incubated in ACSF oxygenated with 95% O2 and 5% CO2, supplemented with vehicle (PBS) or 30 μM DMXAA in PBS for 2 hours at 37° C. Following incubation, DRGs were transferred to a recording chamber, where neurons could be visualized using a 40× water-immersion objective on an Olympus BX51WI microscope. Patch pipettes were pulled from borosilicate capillaries (Chase Scientific Glass Inc.) and filled with a pipette solution containing (in mM): 126 potassium gluconate, 10 NaCl, 1 MgCl2, 10 EGTA, 2 Na-ATP, and 0.1 Mg-GTP, adjusted to pH 7.3 with KOH. The external solution was composed of (in mM): 140 NaCl, 5 KCl, 2 CaCl2, 1 MgCl2, 10 HEPES, 10 glucose, adjusted to pH 7.4 with NaOH. […] Data were recorded and analyzed using the pClamp10 (Axon Instruments) software.

[1] = tested on: osteoclasts and osteoblasts in tumor-bearing distal femora; assay: TRAP and ALP staining on mouse femurs; type: in vivo
Description: Bone histology, TRAP, and ALP staining on mouse femurs. Mice were deeply anesthetized and perfused intracardially with 4% paraformaldehyde (PFA) in 0.1M phosphate buffered saline. The femora were removed and then post-fixed for 48 h in the same fixative at 4° C. After demineralization in EDTA (10%) for 10 days, femur samples were dehydrated in an ascending gradient of ethanol (30-100%) followed by paraffin embedding. Serial sections for trabecular bone were obtained from the distal femur at a thickness of 5 μm followed by tartrate-resistant acid phosphatase (TRAP) staining or alkaline phosphatase (ALP) staining using TRAP kits (Fast Red TR/Naphthol AS-MX, Sigma, St. Louis, Mo.) and NBT/BCIP (Thermo Scientific), respectively. Bone static histomorphometric analyses for […] and osteoblast number (osteoblast number per trabecular bone surface, Ob.N/BS) were conducted using Image J (NIH) based on images taken by a Leica Q500MC microscope. Osteoclasts, osteoblasts and trabecular bone at the metaphysis of the femur (1500 μm proximal to the distal growth plate) were quantified, since bone destruction in this model mainly occurs in this area. Three sections per animal were randomly chosen and used for quantification.

CTX-I = assay: Serum CTX-I ELISA; type: in vivo, mouse; conditions: d17
Description: ELISA. Mouse high-sensitivity IFN-α ELISA kit (42115-1) and IFN-β ELISA kit (42410-1) were purchased from PBL Assay Science. Mouse CTX-I ELISA kit (AC-06F1) and mouse PINP ELISA kit (AC-33F1) were purchased from Immunodiagnostic Systems. ELISA was performed using culture medium, serum, and bone marrow lysates. Serum was obtained from whole blood that was collected from a submandibular vein via facial vein puncture, coagulated for 30 minutes at room temperature, followed by centrifugation (2,000 ×g for 10 min, 4° C.) and collection of the supernatant (serum). Bone marrow was homogenized in a lysis buffer containing protease inhibitors at 4° C. for 30 minutes. ELISA was conducted in accordance with the manufacturer's instructions. A standard curve was performed for each experiment.

Structure (SMILES): Cc1ccc2c(=O)c3cccc(CC(=O)O)c3oc2c1C [DMXAA, 2-(5,6-dimethyl-9-oxo-9H-xanthen-4-yl)acetic acid]
- current-evoked action potential firing (DRG nociceptors): sharply reduced the cancer-induced increase in current-evoked action potential firing
- rheobase of nociceptors (DRG nociceptors): markedly increased the rheobase of nociceptors
- osteoblasts ([1]; d11): no changes were observed in bone-forming osteoblasts
- osteoclast numbers ([1]; d11, 2×20 mg/kg i.p.): far significantly fewer osteoclasts
- serum CTX-I levels (CTX-I): could effectively reduce CTX-I levels on d17
